Test results as given in patent US9826734B2, “Etherified lactate esters, method for the production thereof and use thereof for enhancing the effect of plant protecting agents” (Clariant International Ltd., priority 2011, dated 2017).

Key:
Format in all cases: physicochemical
[1] = Foam behavior, foam test of CIPAC Method MT47; conditions: 3 g/l, CIPAC D water (342 ppm)
Text: The important properties of interface-active substances include the foam behavior, particularly in aqueous systems. Virtually all surfactants foam, and the time to collapse of the foam has to be shortened in the case of critical (highly foaming) surfactants through addition of defoamers to formulation or to aqueous use preparation. The foam behavior of certain of the substances of the invention was characterized, using aqueous solutions at a concentration of 3 g/l, by the foam test of CIPAC Method MT47.

[2] = Dynamic surface tension, bubble pressure method (BP2100 tensiometer); conditions: surface age 200 milliseconds
Experimental: The dynamic surface tension was determined via the bubble pressure method (BP2100, tensiometer, Krüss). With a time span relevant for the spray application of agrochemicals in aqueous dilution (referred to as the surface age in the bubble pressure method) of 200 milliseconds, the value of the dynamic surface tension in [mN/m] correlates with the adherence on difficult-to-wet plants such as barley (cereal). A value of 50 mN/m (at 20-21° C.) produces, relative to water (72.8 mN/m), an improvement in the adherence from “zero adherence” to about 50% (Baur P, Pontzen R 2007. Basic features of plant surface wettability and deposit formation and the impact of adjuvants. In: R E Gaskin ed. Proceeding of the 8th International Symposium on Adjuvants for Agrochemicals. Publisher: International Society for Agrochemical Adjuvants (ISAA), Columbus, Ohio, USA). […] The etherified lactate esters are therefore outstandingly suitable for promoting the accommodation of agrochemicals by cereals (with maize, rice, millet), banana, cabbage/oil seed rape, soybean, and other difficult-to-wet crop plants and weed plants. The positive wetting and sticking effects also apply, of course, for other organisms and artificial surfaces and/or technical applications, for the purpose, for instance, of achieving thin coatings on, or cleaning, surfaces.

[3] = Static surface tension in aqueous systems, Pending Drop Method (DSA10 Goniometer); conditions: room temperature (20° C.)

Row | Substance | Percentage foam volume ([1]; 10 s) [%] | Percentage foam volume ([1]; 60 s) [%] | Percentage foam volume ([1]; 3 min) [%] | Percentage foam volume ([1]; 12 min) [%] | Dynamic surface tension ([2]; 0.3 g/l in water) [mN/m] | Dynamic surface tension ([2]; 3 g/l in water) [mN/m] | Static surface tension ([3]; 0.3 g/l in water) [mN/m] | Static surface tension ([3]; 3 g/l in water) [mN/m]
1 | 2-ethylhexyl lactate 2PO/10EO | 50 | 10 | 0 | 0 | 54.2 | 37.4 | 47.43 | 36.0
2 | 2-ethylhexyl lactate 2EO | 5 | 5 | 5 | 5 | 50.9 | 26.8 | 45.34 | 28.19
3 | Lauryl lactate 8EO/2PO | – | – | – | – | 54.3 | 37.7 | 30.76 | 30.71
4 | 2-ethylhexyl lactate 2PO/2EO | 2 | 2 | 0 | 0 | 47.8 | 30.7 | 40.40 | 29.47
5 | Lauryl lactate 8EO/5PO | – | – | – | – | 50.9 | 36.2 | 31.38 | 31.51
6 | 2-ethylhexyl lactate 10EO | 10 | 5 | 5 | 0 | 56.6 | 46.6 | 52.99 | 35.18
7 | Lauryl lactate 5EO/2PO | – | – | – | – | 51.9 | 37.4 | 31.63 | 31.34
8 | 2-ethylhexyl lactate 5EO | 50 | 40 | 20 | 10 | 54.4 | 35.3 | 48.65 | 32.61
9 | Lauryl lactate 5EO/5PO | – | – | – | – | 52.7 | 36.5 | 31.65 | 30.14
10 | 2-ethylhexyl lactate 15EO | 0 | 0 | 0 | 0 | 58.6 | 48.1 | 54.33 | 42.23
11 | 2-ethylhexyl lactate 2PO/5EO | 25 | 10 | 10 | 10 | 50.7 | 29.6 | 43.35 | 28.48
